Results reported in patent US12642269B2, “Hydrogels as carriers of active ingredients and methods of producing the same” (WinField Solutions, LLC, priority 2018, dated 2026).

How the values were obtained:
gumbo plants [1] = experiment: Example 3: herbicide-induced plant injury or death from carrier hydrogel precursor mixtures applied to plants, visual rating; format: in vivo; details: 14 days after spraying; glyphosate about 2.34% v/v, 10 gallons spray solution per acre; greenhouse; 100% = total death
Protocol: (§1) Release of an herbicide from loaded hydrogels was indirectly studied by examining plant injury or death. Hydrogel precursor mixtures were prepared according to the method 200 illustrated in FIG. 2. The precursor mixture was prepared at a lactose to methacrylic anhydride ratio of 1:0.5.
Glyphosate (as Touchdown HiTech®, Syngenta) alone (control group) or glyphosate plus hydrogel precursor mixture (test groups) was added to water to form a spray solution. The amount of glyphosate in a spray solution was approximately the same (i.e., about 2.34% v/v) for each control and test group. Test groups also included hydrogel precursor mixture at 5% v/v, 10% v/v, 20% v/v, 25% v/v, or 50% v/v of spray solution. Each group included five gumbo plants in a greenhouse. Control or test groups were sprayed at 10 gallons of spray solution per acre. In the test groups, the hydrogel precursor mixtures plus glyphosate were allowed to crosslink in ambient conditions after application to the plants.
Plant injury or death, from direct glyphosate application (control) or release of glyphosate from carrier hydrogels (tests), was measured after 14 days by a visual rating system. Results are presented in FIG. 5 as plant injury or death as a percentage, where “100% control” represents total death of a plant. […]

gumbo plants [2] = experiment: Example 4: herbicide-induced plant injury or death from precursor mixtures of different lactose to methacrylic anhydride ratios, visual rating; format: in vivo; details: 14 days after spraying; glyphosate about 2.34% v/v, 10 gallons spray solution per acre; greenhouse; 100% = total death
Protocol: as §1, with “1:0.5, 1:0.25, or 1:0.1 (test groups).” for “1:0.5.”
Glyphosate (as Touchdown HiTech®, Syngenta) alone (control group) or glyphosate plus hydrogel precursor mixture (test groups) was added to water to form a spray solution. The amount of glyphosate in spray solution was approximately the same (i.e., about 2.34% v/v) for each control and test group. Test groups also included one of the hydrogel precursor mixtures at 5% v/v. Each group included five gumbo plants in a greenhouse. Control or test groups were sprayed at 10 gallons of spray solution per acre. In the test groups, the hydrogel precursor mixtures plus glyphosate were allowed to crosslink in ambient conditions after application to the plants.
Plant injury or death, from direct glyphosate application (control) or release of glyphosate from carrier hydrogels (tests), was measured after 14 days by a visual rating system. Results are presented in FIG. 5 as plant injury or death as a percentage, where “100% control” represents total death of a plant. The same letter attributed to more than one group indicates no statistically significant difference between those groups. […]

## O=C(O)CNCP(=O)(O)O [Glyphosate, N-(phosphonomethyl)glycine]
Gumbo plants [1]
  Plant injury or death (average damage on plants): 85%
Gumbo plants [2]
  Plant injury or death (average damage on plants): 55%
